Assay results: patent US20250288619A1, “PHARMACEUTICAL COMPOSITION, MEGASPHAERA, AND USE THEREOF” (MOON (GUANGZHOU) BIOTECH CO., LTD., priority 2022, published 2025)

Key:
strain MNH05026 = experiment: Antibiotic sensitivity test by disk diffusion method, strain MNH05026; type: cell-based, Megasphaera sp.
Description: (§1) Antibiotic sensitivity tests of the strains MNH05026, MNH22004, and MNH27256: Antibiotic sensitivity tests were carried out on the strain MNH05026 by a disk diffusion method.

strain MNH22004 = experiment: Antibiotic sensitivity test by disk diffusion method, strain MNH22004; type: cell-based, Megasphaera sp.
Description: as §1

strain MNH27256 = experiment: Antibiotic sensitivity test by disk diffusion method, strain MNH27256; type: cell-based, Megasphaera sp.
Description: as §1

[1] = system: ectopic syngeneic liver cancer model; experiment: Therapeutic effect of MNH05026 in combination with Lenvatinib on liver cancer; type: in vivo, mouse; settings: male BALB/c mice
Excerpt: 104 male BALB/c mice were purchased, and inoculated with tumor cells after the quarantine was completed, to establish an ectopic syngeneic liver cancer model. The day of tumor cell inoculation was D1. […] Mice with abnormal tumor growth were discarded and the remaining mice were randomized into 10 groups according to the tumor volume on that day, with 7 mice per group. […] Group A was the Negative Control group, Group B was the positive control Lenvatinib group, Group J was the Lenvatinib+MNH05026 combination group, and Groups C-I received other test articles in combination with Lenvatinib. On the day of grouping, interventions were carried out according to the grouping. During the experiment, animal characteristics, tumor changes, tumor sizes, and mouse weights were monitored regularly. At the experimental endpoint, body weight changes, tumor volume changes, response rates, and tumor growth inhibition rates were analyzed.
Statistical analysis was performed using Two-Way ANOVA with Dunnett's multiple comparisons at the experimental endpoint. Significance of difference vs. the Control group: not significant (ns), p value≥0.05; *, p value<0.05; **, p value<0.01; ***, p value<0.001; ****, p value<0.0001.
FIGS. 17B and 17C present the mouse tumor volume data as mean±standard deviation (mm3). Statistical analysis was performed using Two-Way ANOVA with Dunnett's multiple comparisons at the experimental endpoint. Significance of difference vs. the Control group: not significant (ns), p value≥0.05; *, p value<0.05; **, p value<0.01; ***, p value<0.001; ****, p value<0.0001.

Compound | Diameter of inhibition zone by MNH05026 (strain MNH05026) | Sensitivity or resistance of strain MNH05026 to the antibiotic (strain MNH05026) | Diameter of inhibition zone by MNH22004 (strain MNH22004) | Sensitivity or resistance of strain MNH22004 to the antibiotic (strain MNH22004) | Diameter of inhibition zone by MNH27256 (strain MNH27256) | Sensitivity or resistance of strain MNH27256 to the antibiotic (strain MNH27256) | Body weight during the experiment [1] | Response rate [1] | Tumor volume at the experimental endpoint vs Control group [1]
CC1(C)S[C@@H]2[C@H](NC(=O)[C@H](N)c3ccccc3)C(=O)N2[C@H]1C(=O)O [Ampicillin] | 19.91 mm | sensitive | 0 mm | resistant | 0 mm | resistant | – | – | –
CO/N=C(\C(=O)N[C@@H]1C(=O)N2C(C(=O)O)=C(CSc3nc(=O)c(=O)[nH]n3C)CS[C@H]12)c1csc(N)n1 [Ceftriaxone] | 29.42 mm | sensitive | 12.78 mm | sensitive | 0 mm | resistant | – | – | –
O=C(N[C@H](CO)[C@H](O)c1ccc([N+](=O)[O-])cc1)C(Cl)Cl [Chloramphenicol] | 37.02 mm | sensitive | 33.29 mm | sensitive | 34.45 mm | sensitive | – | – | –
O=C(O)c1cn(C2CC2)c2cc(N3CCNCC3)c(F)cc2c1=O [Ciprofloxacin] | 37.66 mm | sensitive | 35.42 mm | sensitive | 34.69 mm | sensitive | – | – | –
CC[C@H]1OC(=O)[C@H](C)[C@@H](O[C@H]2C[C@@](C)(OC)[C@@H](O)[C@H](C)O2)[C@H](C)[C@@H](O[C@@H]2O[C@H](C)C[C@H](N(C)C)[C@H]2O)[C@](C)(O)C[C@@H](C)C(=O)[C@H](C)[C@@H](O)[C@]1(C)O [Erythromycin] | 15.65 mm | sensitive | 21.03 mm | sensitive | 9.0 mm | sensitive | – | – | –
COc1cc2nccc(Oc3ccc(NC(=O)NC4CC4)c(Cl)c3)c2cc1C(N)=O [Lenvatinib] | – | – | – | – | – | – | increased steadily | 85.71% | significant decrease
CCC[C@@H]1C[C@@H](C(=O)N[C@@H]([C@H]2O[C@H](SC)[C@H](O)[C@@H](O)[C@H]2O)[C@@H](C)O)N(C)C1 [Lincomycin] | 38.99 mm | sensitive | 11.34 mm | sensitive | 8.81 mm | sensitive | – | – | –
CN(C)[C@@H]1C(O)=C(C(N)=O)C(=O)[C@@]2(O)C(O)=C3C(=O)c4c(O)cccc4[C@@](C)(O)[C@H]3C[C@@H]12 [Tetracycline] | 21.44 mm | – | 10.48 mm | – | 17.75 mm | – | – | – | –
Gentamicin | 13.97 mm | sensitive | 9.00 mm | sensitive | 9.37 mm | sensitive | – | – | –
Penicillin | 29.75 mm | sensitive | 0 mm | resistant | 0 mm | resistant | – | – | –
Trimethoprim-sulfamethoxazole | 10.65 mm | sensitive | 17.08 mm | sensitive | 12.75 mm | sensitive | – | – | –
